Laboratory results: ChEMBL document CHEMBL1914361, “Shishicrellastatins, inhibitors of cathepsin B, from the marine sponge Crella (Yvesia) spinulata” (Bioorg Med Chem, 2011)

Target: Cathepsin B (Bos taurus, UniProt P07688)
Test: Inhibition of bovine cathepsin B after 1 hr by fluorescence assay

| SMILES | IC50 |
| --- | --- |
| C[C@H]([C@@H]1C[C@H]2C[C@](C)(OC2(C)C)[C@@H](CC[C@@H](C)[C@H]2CC[C@H]3C4=C(CC[C@]23C)[C@@]2(C)C[C@H](OS(=O)(=O)O)[C@@H](OS(=O)(=O)O)[C@H](C)C2=CC4)O1)[C@H]1CC[C@H]2C3=C(CC[C@]12C)[C@]12CC[C@](O)(OC1)[C@@H](C)[C@@H]2[C@@H](OS(=O)(=O)O)C3 [SHISHICRELLASTATIN A] | 6.79 µM |
| C[C@H]([C@@H]1C[C@H]2C[C@](C)(OC2(C)C)[C@@H](CC[C@@H](C)[C@H]2CC=C3C4=C(CC[C@@]32C)[C@@]2(C)C[C@H](OS(=O)(=O)O)[C@@H](OS(=O)(=O)O)[C@H](C)C2=CC4)O1)[C@H]1CC[C@H]2C3=C(CC[C@]12C)[C@]12CC[C@](O)(OC1)[C@@H](C)[C@@H]2[C@@H](OS(=O)(=O)O)C3 [SHISHICRELLASTATIN B] | 6.81 µM |
